Reference: patent US10053451B2, “Heterocyclic estrogen receptor modulators and uses thereof” (priority 2015, dated 2018)

How the values were obtained:
Assay type in all cases: cell-based
MCF-7 cells = experiment: Breast Cancer Cell Viability Assay (CellTiter-Glo); conditions: 5 days of compound exposure; for IC50: Homo sapiens, MCF7, 120 h, read-out: MCF7 viab IC50
Description: The following day a 10 point, serial 1:5 dilution of each compound was added to the cells in 16 μL at a final concentration ranging from 10-0.00000 μM. After 5 days of compound exposure, 16 μL of CellTiter-GLo (Promega, Madison Wis.) was added to the cells, and the relative luminescence units (RLUs) of each well were determined. CellTiter-Glo added to 32 μL of medium without cells was used to obtain a background value.

ER-α = target: T1, ER-α (Homo sapiens, UniProt P03372); experiment: ER-α In Cell Western Assay; conditions: MCF7 cells, 4 hours post compound addition, SP1 anti-ER antibody; read-out: ICW (SP1) max response
T1 construct: MCF7 cells were trypsinized and washed twice; endogenous in cells; host or cells: MCF7 breast cancer cells
T1 sequence (P03372 1-595): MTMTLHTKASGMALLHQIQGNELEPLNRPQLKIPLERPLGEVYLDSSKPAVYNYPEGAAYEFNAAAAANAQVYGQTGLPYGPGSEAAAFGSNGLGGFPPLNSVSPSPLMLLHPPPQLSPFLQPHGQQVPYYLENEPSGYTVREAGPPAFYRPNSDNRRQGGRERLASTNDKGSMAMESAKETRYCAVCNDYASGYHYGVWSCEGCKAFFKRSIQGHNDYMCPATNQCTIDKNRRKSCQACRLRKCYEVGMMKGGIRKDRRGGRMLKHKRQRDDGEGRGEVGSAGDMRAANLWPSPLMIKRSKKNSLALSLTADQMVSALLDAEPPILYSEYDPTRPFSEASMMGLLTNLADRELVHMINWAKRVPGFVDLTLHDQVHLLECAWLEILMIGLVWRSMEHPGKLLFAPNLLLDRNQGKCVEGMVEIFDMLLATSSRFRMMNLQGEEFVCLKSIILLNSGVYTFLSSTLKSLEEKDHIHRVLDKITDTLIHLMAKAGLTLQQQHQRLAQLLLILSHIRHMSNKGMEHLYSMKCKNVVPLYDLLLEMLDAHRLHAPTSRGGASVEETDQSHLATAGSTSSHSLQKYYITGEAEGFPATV
Description: MCF7 cells were trypsinized and washed twice in Phenol Red Free RPMI containing 5% Charcoal Dextran Stripped serum with 20 mM HEPES and NEAA, then adjusted to a concentration of 200,000 cells per mL with the same medium. Next, 16 μL of the cell suspension (3200 cells) was added to each well of a poly-D-lysine coated 384 well plate, and the cells were incubated at 37° C. over 4 days to allow the cells to adhere and grow. […] At 4 hours post compound addition, the cells were fixed by adding 16 μL of 30% formalin to the 32 μL of cells and compound (10% formalin final concentration) for 20 minutes. Cells were then washed twice with PBS Tween 0.1% and then permeabilized in PBS 0.1% Triton (50 μl/well) for additional 15 minutes. The PBS 0.1% triton was decanted, and the cells were washed: LI-COR blocking buffer (50 μL/well) was added, the plate was spun at 3000 rpm, and then the blocking buffer was decanted. Additional LI-COR blocking buffer (50 μL/well) was added, and the cells were incubated overnight at 4° C. The blocking buffer was decanted, and the cells were incubated overnight at 4° C. with SP1 (Thermo Scientific) anti-ER rabbit monoclonal antibody diluted 1:1000 in LI-COR blocking buffer/0.1% Tween-20. Wells which were treated with blocking buffer with Tween but no antibody were used as a background control. Wells were washed twice with PBS Tween 0.1% to remove free SP1 antibodies, and the cells were incubated at room temp for 60-90 minutes in LI-COR goat anti-rabbit IRDye™ 800CW (1:1000) and DRAQ5 DNA dye (1:10000 of 5 mM stock solution) diluted in LI-COR blocking buffer containing 0.1% Tween-20 and 0.01% SDS. Cells were then washed with 0.1% Tween-20/PBS three times. Plates were scanned on a LI-COR Odyssey infrared imaging system. Integrated intensities in the 800 nm channel and 700 nm channel were measured to determine levels of ER-α and DNA respectively. Percent ER levels were determined as follows: (Integrated intensity […] sample/integrated intensity 700 nm sample)/(Integrated intensity 800 nm untreated cells/integrated intensity 700 nm untreated cells)×100=% ER levels.

[1] = target: T2, estrogen receptor alpha (ESR1) (Homo sapiens, UniProt P03372); experiment: Breast Cancer Cell ERa High Content Fluorescence Imaging Assay (ER-alpha MCF7 Assay); conditions: MCF7 cells, 4 hours; plateau of maximal effect; DMSO = 0%, 5 nM Fulvestrant = 100% change in ESR1
T2 construct: MCF7 cells were trypsinized and washed twice; endogenous in cells; host or cells: MCF7 breast cancer cells
T2 sequence (P03372 1-595): T1 sequence (P03372 1-595)
Description: Cell plates were incubated at 37° C., for 4 hours. Fixation and permeabilization were carried out using a Biotek EL406 plate washer and dispenser as follows. […] Samples were incubated 30 minutes. Well contents was aspirated and 50 uL/well of Phosphate Buffered Saline (PBS) containing 0.5% w/v bovine serum albumen, 0.5% v/v Triton X-100 (Antibody Dilution Buffer) was added to each well. Samples were incubated for 30 minutes. Well contents were aspirated and washed 3 times with 100 uL/well of PBS. Immunofluorescence staining of estrogen receptor alpha (ESR1) was carried out using a Biotek EL406 plate washer and dispenser as follows. […] Samples were incubated for 2 hours at room temperature. Samples were washed 4 times with 100 uL/well of PBS. […] Samples were incubated for 2 hours at room temperature. Samples were washed 3 times with 100 uL/well of PBS using a Biotek EL406. Quantitative fluorescence imaging of ESR1 was carried out using a Cellomics Arrayscan V (Thermo). […] Channel 1 (DNA stain) was used to define the nuclear region (Circ). […] The “Robust Fit” method was used to define the inflexion point of curve (EC50) and the plateau of the maximal effect (Sinf).

Row | SMILES | MCF7 viab max response (MCF-7 cells) | IC50 (MCF-7 cells) [nM] | Emax (ER-α) [%] | ER-alpha MCF7 Sinf (%) [1] [%]
1 | CC1=C(c2ccc(O)cc2F)C(c2ccc(OC[C@H](C)N3CC[C@@H](C)C3)cn2)Oc2ccc(O)cc21 (stereo partly drawn) [Example 10, 3-(2-Fluoro-4-hydroxyphenyl)-4-methyl-2-(5-((S)-2-((R)-3-methylpyrrolidin-1-yl)propoxy)pyridin-2-yl)-2H-chromen-6-ol] | 70.9 | 0.74 | 83.4 | 
2 | CC1=C(c2cccc(O)c2)C(c2ccc(OCCN3CCCC3)cn2)Oc2ccc(O)cc21 (stereo not shown) [Example 6, 3-(3-Hydroxyphenyl)-4-methyl-2-(5-(2-(pyrrolidin-1-yl)ethoxy)pyridin-2-yl)-2H-chromen-6-ol] | 56.9 | 7.08 | 69.9 | 
3 | CC1=C(c2cccc(O)c2)C(c2ccc(OC[C@H](C)N3CC[C@@H](C)C3)cc2)Oc2c1ccc1[nH]ncc21 (stereo partly drawn) [Example 15, 3-(4-Methyl-2-(4-((S)-2-((R)-3-methylpyrrolidin-1-yl)propoxy)phenyl)-2,7-dihydropyrano[2,3-e]indazol-3-yl)phenol] | 65.6 | 0.46 | 79.5 | 
4 | CC1=C(c2cc(O)c(F)c(F)c2)C(c2ccc(OC[C@H](C)N3CC[C@@H](C)C3)cn2)Oc2ccc(O)cc21 (stereo partly drawn) [Example 7, 3-(3,4-Difluoro-5-hydroxyphenyl)-4-methyl-2-(5-((S)-2-((R)-3-methylpyrrolidin-1-yl)propoxy)pyridin-2-yl)-2H-chromen-6-ol] | 72.1 | 1.29 | 87.1 | 
5 | CC1=C(c2cccc(O)c2)C(c2cnc(OCCN3CCCC3)cn2)Oc2ccc(O)cc21 (stereo not shown) [Example 4, 3-(3-Hydroxyphenyl)-4-methyl-2-(5-(2-(pyrrolidin-1-yl)ethoxy)pyrazin-2-yl)-2H-chromen-6-ol] | 49.5 | 0.36 | 70.1 | 
6 | CC1=C(c2ccc(O)cc2)C(c2ccc(OC[C@H](C)N3CC[C@@H](C)C3)cn2)Oc2ccc(O)cc21 (stereo partly drawn) [Example 8, 3-(4-Hydroxyphenyl)-4-methyl-2-(5-((S)-2-((R)-3-methylpyrrolidin-1-yl)propoxy)pyridin-2-yl)-2H-chromen-6-ol] | 69.3 | 1.36 | 85.9 | 
7 | CC1=C(c2cccc(O)c2)C(c2ccc(OC[C@H](C)N3CC[C@@H](C)C3)cc2)Oc2ccc3[nH]ncc3c21 (stereo partly drawn) [Example 14, 3-(9-Methyl-7-(4-((S)-2-((R)-3-methylpyrrolidin-1-yl)propoxy)phenyl)-3,7-dihydropyrano[3,2-e]indazol-8-yl)phenol] | 62.3 | 0.83 | 77.8 | 
8 | CC1=C(c2ccc3cn[nH]c3c2)C(c2ccc(OC[C@H](C)N3CC[C@@H](C)C3)cc2)Oc2ccc(O)cc21 (stereo partly drawn) [Example 11, 3-(1H-Indazol-6-yl)-4-methyl-2-(4-((S)-2-((R)-3-methylpyrrolidin-1-yl)propoxy)phenyl)-2H-chromen-6-ol] | 55.8 | 17 | 74.1 | 
9 | CC1=C(c2cccc(O)c2)C(c2cnc(OC[C@H](C)N3CC[C@@H](C)C3)cn2)Oc2ccc(O)cc21 (stereo partly drawn) [Example 3, 3-(3-Hydroxyphenyl)-4-methyl-2-(5-((S)-2-((R)-3-methylpyrrolidin-1-yl)propoxy)pyrazin-2-yl)-2H-chromen-6-ol] | 61.1 | 0.66 | 83.3 | 
10 | CC1=C(c2cccc3[nH]ncc23)C(c2ccc(OC[C@H](C)N3CC[C@@H](C)C3)cc2)Oc2ccc(O)cc21 (stereo partly drawn) [Example 13, 3-(1H-Indazol-4-yl)-4-methyl-2-(4-((S)-2-((R)-3-methylpyrrolidin-1-yl)propoxy)phenyl)-2H-chromen-6-ol] | 65.9 | 0.9 | 85.1 | 
11 | CC1=C(c2cccc(O)c2)C(c2ccc(OCCN3CCCC3)nc2)Oc2ccc(O)cc21 (stereo not shown) [Example 1, 3-(3-Hydroxyphenyl)-4-methyl-2-(6-(2-(pyrrolidin-1-yl)ethoxy)pyridin-3-yl)-2H-chromen-6-ol] | 53.6 | 0.18 | 65.9 | 
12 | CC1=C(c2ccc3[nH]ncc3c2)C(c2ccc(OC[C@H](C)N3CC[C@@H](C)C3)cc2)Oc2ccc(O)cc21 (stereo partly drawn) [Example 12, 3-(1H-Indazol-5-yl)-4-methyl-2-(4-((S)-2-((R)-3-methylpyrrolidin-1-yl)propoxy)phenyl)-2H-chromen-6-ol] | 60.1 | 2.56 | 74.8 | 
13 | CC1=C(c2cccc(O)c2)C(c2ccc(OC[C@H](C)N3CC[C@@H](C)C3)nc2)Oc2ccc(O)cc21 (stereo partly drawn) [Example 2, 3-(3-Hydroxyphenyl)-4-methyl-2-(6-((S)-2-((R)-3-methylpyrrolidin-1-yl)propoxy)pyridin-3-yl)-2H-chromen-6-ol] | 56.9 | 0.13 | 76.1 | 
14 | CC1=C(c2ccc(O)c(F)c2)C(c2ccc(OC[C@H](C)N3CC[C@@H](C)C3)cn2)Oc2ccc(O)cc21 (stereo partly drawn) [Example 9, 3-(3-Fluoro-4-hydroxyphenyl)-4-methyl-2-(5-((S)-2-((R)-3-methylpyrrolidin-1-yl)propoxy)pyridin-2-yl)-2H-chromen-6-ol] | 71.6 | 1.03 | 88 | 
15 | CC1=C(c2cccc(O)c2)C(c2ccc(OC[C@H](C)N3CC[C@@H](C)C3)cn2)Oc2ccc(O)cc21 (stereo partly drawn) [Example 5, 3-(3-Hydroxyphenyl)-4-methyl-2-(5-((S)-2-((R)-3-methylpyrrolidin-1-yl)propoxy)pyridin-2-yl)-2H-chromen-6-ol] | 64.2 | 1.23 | 86.7 | 
16 | C[C@]12CC[C@@H]3c4ccc(O)cc4C[C@@H](CCCCCCCCC[S+]([O-])CCCC(F)(F)C(F)(F)F)[C@H]3[C@@H]1CC[C@@H]2O (stereo partly shown) [fulvestrant, reference compound] | 74.6 | 0.56 | 93.6 | 
17 | CC1=C(c2cncnc2)C(c2ccc(OCCN3CC(CF)C3)cc2)Oc2ccc(O)cc21 (stereo not shown) [Example 38, 2-{4-[2-(3-Fluoromethyl-azetidin-1-yl)-ethoxy]-phenyl}-4-methyl-3-pyrimidin-5-yl-2H-chromen-6-ol] |  |  |  | 90.3
